From patent publication US20230240290A1, “USE OF (Z)-3-HEXENYL ESTERS AND METHOD FOR PROTECTING PLANTS AGAINST PESTS” (UNIVERSITAT POLITÈCNICA DE VALÈNCIA, priority 2020, published 2023)

Columns and labels:
Tuta absoluta [1] = details: in vivo
Protocol: Two consecutive experiments were performed to assess the effect of exposure to both volatiles on T. absoluta. The first experiment studied the effect on the laying of T absoluta. The selected eggs laid in the first experiment were later used in the second experiment to study the mortality of immature T. absoluta specimens developed in plants exposed to (Z)-3-hexenyl propanoate. The same three treatments described above for T. urticae were also assayed for T. absoluta. The laying of T. absoluta was assessed in 8 tomato plants (cv. Moneymaker) per treatment. Each of the plants was isolated inside a plastic cage (60×60×60 cm) (BugDorm-2) and kept in a climatic chamber at 25±2° C., 65±5% HR, 14:10 (L:D) h photoperiod following the same assay distribution described for T. urticae. Inside each cage (replica), 2 adult pairs were released from T. absoluta (males and females) and left undisturbed for 72 hours. After this time, T. absoluta adults were removed, and the number of eggs was counted.
To study the mortality of T. absoluta in the plants exposed to the 3 treatments described above, 6 T. absoluta eggs per plant were equally distributed on all the leaves with the help of a fine brush. […] Mortality of T. absoluta was assessed in 8 tomato plants (cv. Moneymaker) per treatment. […] As soon as the adults began to emerge, they were counted and removed daily from the cages.

[2] = test system: PR1 (marker gene for the SA signaling pathway); experiment: Field (commercial greenhouse) assay, transcriptional response of PR1 in tomato plants; assay type: in vivo, tomato cv Raf; details: LD dispenser every 20 m2, at 30 and 60 days
Protocol: (§1) To know the behavior of the dispensers loaded with (Z)-3-hexenyl propionate under real cultivation conditions, four commercial greenhouses for tomato cv Raf located in Xilxes (Castellón province), with a history of problems with T. absoluta contamination at the end of winter, were selected. An experimental design of randomized blocks was carried out where each greenhouse was considered a block with two treatments per block and 4 repetitions per treatment. […]
(§2) Twenty plants randomly chosen by repetition were sampled weekly for 11 weeks, beginning 30 Jan. […] First, the number of leaflets infested by T. absoluta per plant was counted. Then the number of N. tenuis (adults and nymphs) throughout the apical third of each plant (leaves, flowers and shoots) was counted. Following the methodology described above, 6 samples were taken from the apical part of each plant per repetition, and these samples were immediately introduced into liquid nitrogen to quantify the expression of the PR1 and PIN2 genes (described in Example 1 and Example 2). The expression of these genes was quantified one day before, 4, and 8 weeks after hanging the dispensers in the greenhouses.

plant = experiment: Growth and production of plants exposed to the volatile; assay type: in vivo
Tuta absoluta [3] = experiment: Field (commercial greenhouse) assay, leaflets infested by T. absoluta; assay type: in vivo; details: commercial tomato greenhouse, infested leaflets per plant, 500 dispensers/ha
Protocol: as §1, §2

[4] = test system: PIN2 (marker gene for the JA signaling pathway); experiment: Field (commercial greenhouse) assay, transcriptional response of PIN2 in tomato plants; assay type: in vivo, tomato cv Raf; details: LD dispenser every 20 m2, at 30 and 60 days
Protocol: as §1, §2

Tuta absoluta [5] = experiment: Laying of Tuta absoluta on exposed tomato plants; assay type: in vivo; details: T. absoluta, 72 hours; permanent exposure
Protocol: It was also studied whether the defensive activation induced by exposure to (Z)-3-hexenyl propanoate could influence the development of two highly important phytophages in tomato cultivation, the red spider, T. urticae, and the lepidoptera T. absoluta. The individuals used in these experiments came from the captive breeding of these species that are kept in the IVIA described above. The exposure time of the plant to the volatile was tested on both phytophages in two different ways, one where the plant was only exposed to the volatile for 24 hours and then the herbivore to be assayed was immediately released, and the other where the volatile was permanently exposed throughout the experiment.
For this purpose, two climatic chambers were used under the same environmental conditions [25±2° C., 65±5% HR and 14:10 h (L:D) photoperiod], wherein, to avoid interference between the volatiles, one was assigned to the (Z)-3-hexenyl propanoate treatments and one to the control treatment. […]
Two consecutive experiments were performed to assess the effect of exposure to both volatiles on T. absoluta. […] The laying of T. absoluta was assessed in 8 tomato plants (cv. Moneymaker) per treatment. […] After this time, T. absoluta adults were removed, and the number of eggs was counted.

CC/C=C\CCOC(=O)CC [(Z)-3-hexenyl propanoate]
Mortality from T. absoluta egg to adult (Tuta absoluta [1]): around 80%
Expression of PR1 compared to plants in the control zone [2]: significantly higher
Growth or production of the plant (plant): does not reduce the growth or production of the plant
Infestation of T. absoluta lower than control (Tuta absoluta [3]): about 58%
Expression of PIN2 compared to plants in the control zone [4]: significantly higher
Reduction in laying compared to the control (Tuta absoluta [5]): 67.2±15.0%
